Results on one molecule are retold here after patent publication US20080269202A1, “Novel 2,3-benzodiazepine derivatives and their use as antipsychotic agents” (Teva Pharmaceutical Industries Ltd., priority 2007, published 2008).

Data set [1] concerns DOPA accumulation in eminentia mediana. Put plainly: DOPA accumulation in eminentia mediana after NSD-1015. Type of data set: in vivo, Sprague-Dawley rats. As for the experimental part: Acute administration of atypical antipsychotics results in enhanced accumulation of dihydroxyphenylalanine (DOPA) in the […] after the inhibition of DOPA decarboxylase. In contrast, DOPA accumulation is not altered by the typical antipsychotics (Andersson, G, Albinsson, A, Pettersson, G, Arzneimittelforschung. 1990, 40, 237; Gudelsky, G. A., Meltzer, H. Y. Neuropsychopharmacology, 1989, 2, 45). The effect of the compound of Example 121 on DOPA-accumulation was measured by analyzing the levels of DOPA in […]. […] (EM), were dissected out from the brains on ice-cold plates and kept at -70° C. until they were assayed for DOPA by HPL-EC. Statistical analysis was carried out using one-way ANOVA followed by Duncan test.

Data set [2] relates to PCP-induced locomotion. Put plainly: PCP induced locomotor activity test (open field). Conditions: all doses (1, 3, 6, 10, 15 mg/kg) by gavage, PCP 5 mg/kg, vs vehicle. Type of data set: in vivo, mice. On the procedure: The effects of compounds 121 and 183, administered orally, were also evaluated in the PCP induced locomotor activity test. Compound 121 was designated as “Compound A” and Compound 183 was designated as “Compound B” for purposes of this study. In general, the study aimed to test Compounds A and B for potential antipsychotic activity in PCP treated mice.
Compounds A & B were dissolved in 3% Tween: Compound A: 1, 3, 6, 10, and 15 mg/kg; Compound B: 3, 7, 14, 28, and 40 mg/kg; Compounds A+B were administered by gavage.
PCP (5 mg/kg) was dissolved in sterile injectable water.
The open field (“OF”) test assessed both anxiety and locomotor behavior. The open field chambers are Plexiglas square chambers (27.3×27.3×20.3 cm; Med Associates Inc., St Albans, Vt.) surrounded by infrared photobeams (16×16×16) to measure horizontal and vertical activity. The analysis was configured to divide the open field into a center and periphery zone. Distance traveled was measured from horizontal beam breaks as the mouse moved whereas rearing activity was measured from vertical beam breaks.
Mice were brought to the activity experimental room for at least 1 hr acclimation to the experimental room conditions prior to testing. […]
Data was analyzed to show baseline activity (activity during the 30 min prior to PCP injection) and PCP-induced activity (activity during the 60 min after PCP injection).

Data set [3] deals with PCP-induced disruption of PPI. Kind of data set: PCP-induced disruption of pre-pulse inhibition (PPI).
Excerpt: Male C57B1/6J mice from Jackson Laboratories (Bar Harbor, Me.) were used in this study. Mice were received at 6-weeks of age. Upon receipt, mice were assigned unique identification numbers (tail marked) and were group housed in OPTImice cages. All animals remained housed in groups of four during the remainder of the study. […] During the period of acclimation, mice were examined on a regular basis, handled, and weighed to assure adequate health and suitability. Mice were maintained on a 12/12 light/dark cycle with the light on at 6:00 a.m. The room temperature was maintained between 20 and 23° C. with a relative humidity maintained between 30% and 70%. Food and water were provided ad libitum for the duration of the study. In each test, animals were randomly assigned across treatment groups.
All compounds were injected i.p. at a dose volume of 10 ml/kg. […] Phenylcyclohexylpiperidine (PCP) (8 mg/kg) was dissolved in sterile water.
The acoustic startle measured an unconditioned reflex response to external auditory stimulation. […] Mice were placed in the PPI chambers (Med Associates) for a 5 min session of white noise (70 dB) habituation.
After the acclimation period the test session was automatically started. The session started with a habituation block of 6 presentations of the startle stimulus alone, followed by 10 PPI blocks of 6 different types of trials. Trial types are: null (no stimuli), startle (120 dB), startle plus prepulse (4, 8 and 12 dB over background noise i.e. 74, 78 or 82 dB) and prepulse alone (82 dB). Trial types were presented at random within each block.
Each trial started with a 50 ms null period during which baseline movements were recorded. There was a subsequent 20 ms period during which prepulse stimuli were presented and responses to the prepulse measured. After further 100 ms the startle stimuli were presented for 40 ms and responses recorded for 100 ms from startle onset. Responses were sampled every ms. The inter-trial interval was variable with an average of 15 s (range from 10 to 20 s). In startle alone trials the basic auditory startle was measured and in prepulse plus startle trials the amount of inhibition of the normal startle was determined and expressed as a percentage of the basic startle response (from startle alone trials), excluding the startle response of the first habituation block.
Data were analyzed by analysis of variance (ANOVA) followed by post-hoc comparisons with Fisher Tests when appropriate. An effect was considered significant if p<0.05. Data are represented as the mean and standard error to the mean.

For the molecule `CNC(=O)N1N=C(c2ccc(N)cc2)c2cc(OC)c(OC)cc2C[C@H]1C` [Example 121], the “DOPA levels (pg/tissue block)” value in data set [1] (rat eminentia mediana, 10 mg/kg ip, mean ± SEM) is listed as 484 ± 34 pg/tissue block; in data set [1] (rat eminentia mediana, 20 mg/kg ip, mean ± SEM), 652 ± 69 pg/tissue block. Moreover, the “DOPA levels (pmol/mg prot)” value in data set [1] (rat eminentia mediana, 40 mg/kg ip, mean ± SEM) stood at 94.0 ± 11.4 pmol/mg prot. For the same molecule, the “effect on levels of DOPA in the EM of rats” value in data set [1] (result in words, vs saline) was “significantly increased”. For the same molecule, in data set [2], the “effect on PCP induced locomotion” value is on record as “significantly decreased”. In data set [3] (5 mg/kg i.p. (high dose)), the “sedation and lethargy in the mice” value is “caused sedation and lethargy”. In addition, the “reversal of PCP-induced disruption of PPI” value in data set [3] (2.5 and 5 mg/kg i.p., PCP 8 mg/kg, C57B1/6J mice) is on record as “significantly reversed”.
